In patent US4875922A, “Pyrimidine derivatives” (Imperial Chemical Industries PLC, priority 1986, dated 1989):
Marks after values point to notes of the source that are not given here.

Columns and labels:
Barley = experiment: Whole plant screen for plant growth regulator activity, barley (BR); format: in vivo, Barley (Atem); conditions: BR, 4000 ppm (4 kg/ha), visual score after 2-6 weeks; for T = Tillering or side shooting: * = decrease in tillering
Description: (§1) Compounds 1 to 3 in Table 1 were tested for plant growth regulator activity against five species for various growth effects relevant to plant growth regulation.
(§2) The plant species used in this screen are presented in Table II with the leaf stage at which they were sprayed. Each chemical was applied at 4000 ppm (4 kg/ha in a 1000 l/ha field volume) using a tracksprayer and a SS8004E (Teejet) nozzle.
(§3) After spray the plants were grown in a glasshouse with 25° C. day/22° C. night temperatures and supplementary lighting was supplied when necessary (from mercury vapour lamps), to provide a 16 hour photoperiod. The exception to this were the temperate cereals, wheat and barley which were grown in 16° C. day/13° C. night temperatures.
(§4) After 2-6 weeks in the glasshouse, depending on the time of year, the plants were visually assessed for morphological characteristics. Formulation blanks were used as controls to assess the plants.
(§5) Additional compounds in Table I were tested for plant growth regulator activity using the method of Example 60 except that Tomato was included in the test as an additional species. Tomato, Ailsa Craig, was grown in a single 3 inch pot in peat and treated at the 2 to 21/2 leaves growth stage. The results were presented in Table IV in which Tomato is indicated by the code TO and the Key is otherwise as for Table III.

Wheat = experiment: Whole plant screen for plant growth regulator activity, wheat (WW); format: in vivo, Wheat (Timmo); conditions: for G = Greening effect / I = Interligular or internodal length reduction / R = Retardation / T = Tillering or side shooting: WW, 4000 ppm (4 kg/ha), visual score after 2-6 weeks; for T = Tillering or side shooting: * = decrease in tillering
Description: as §1, §2, §3, §4, §5

Rice = experiment: Whole plant screen for plant growth regulator activity, rice (RC); format: in vivo, Rice (Ishikari); conditions: 4000 ppm (4 kg/ha), visual score after 2-6 weeks; for T = Tillering or side shooting: * = decrease in tillering
Description: as §1, §2, §3, §4, §5

Apple = experiment: Whole plant screen for plant growth regulator activity, apple (AP); format: in vivo, Apple (Red Delicious); conditions: 4000 ppm (4 kg/ha), visual score after 2-6 weeks
Description: as §1, §2, §3, §4, §5

Tomato = experiment: Whole plant screen for plant growth regulator activity, tomato (TO); format: in vivo, Tomato (Ailsa Craig); conditions: 4000 ppm (4 kg/ha), visual score after 2-6 weeks
Description: as §2, §3, §4, §5
An astrisk (*) after a score under "T" (tillering) indicated a decrease in tillering.

| SMILES | G = Greening effect (Barley) | I = Interligular or internodal length reduction (Barley) | R = Retardation (Barley) | G = Greening effect (Wheat) | I = Interligular or internodal length reduction (Wheat) | R = Retardation (Wheat) | G = Greening effect (Rice) | I = Interligular or internodal length reduction (Rice) | R = Retardation (Rice) | T = Tillering or side shooting (Rice) | G = Greening effect (Apple) | I = Interligular or internodal length reduction (Apple) | R = Retardation (Apple) | G = Greening effect (Tomato) | I = Interligular or internodal length reduction (Tomato) | R = Retardation (Tomato) | T = Tillering or side shooting (Barley) | T = Tillering or side shooting (Wheat) | T = Tillering or side shooting (Tomato; * = decrease in tillering) | A = Apical damage (Wheat; 4000 ppm) |
| --- | --- | --- | --- | --- | --- | --- | --- | --- | --- | --- | --- | --- | --- | --- | --- | --- | --- | --- | --- | --- |
| CC(C)C(O)(CCC(C)(C)C)c1cncnc1 (centres unmarked) [Compound 20] | 1 (10-30%) | 2 (31-60%) | 2 (31-60%) | 2 (31-60%) | 3 (61-100%) | 3 (61-100%) | 2 (31-60%) | 3 (61-100%) | 2 (31-60%) | 3 (61-100%) | 2 (31-60%) | 3 (61-100%) | 3 (61-100%) | 2 (31-60%) | 3 (61-100%) | 3 (61-100%) |  |  |  |  |
| CCC(C)CCCC(O)(c1cncnc1)C(C)C (centres unmarked) [Compound 21] | 1 (10-30%) | 3 (61-100%) | 2 (31-60%) | 2 (31-60%) | 2 (31-60%) | 2 (31-60%) | 1 (10-30%) | 2 (31-60%) | 2 (31-60%) | 2 (31-60%) |  | 2 (31-60%) | 2 (31-60%) | 2 (31-60%) | 2 (31-60%) | 2 (31-60%) | 3 (61-100%) |  |  |  |
| CC(C)CCCCC(O)(c1cncnc1)C(C)C (centres unmarked) [Compound 22] |  | 1 (10-30%) | 1 (10-30%) | 2 (31-60%) | 2 (31-60%) | 2 (31-60%) |  |  |  |  |  | 1 (10-30%) | 1 (10-30%) | 2 (31-60%) | 2 (31-60%) | 2 (31-60%) |  | 1 (10-30%) | 1 (10-30%) |  |
| CCCCCCCC(O)(c1cncnc1)C(C)C (centres unmarked) [Compound 26] |  |  |  | 1 (10-30%) | 1 (10-30%) | 2 (31-60%) |  |  |  |  |  |  |  | 1 (10-30%) | 1 (10-30%) | 2 (31-60%) | 2 (31-60%) |  |  |  |
| CC(C)C(O)(CC1CCCC1)c1cncnc1 (centres unmarked) [Compound 27] |  |  |  | 2 (31-60%) | 2 (31-60%) | 2 (31-60%) |  |  |  |  |  |  |  | 2 (31-60%) | 2 (31-60%) | 2 (31-60%) | 2* |  |  |  |
| CC(C)CCC(O)(c1cncnc1)C(C)(C)C (centres unmarked) [Compound 29] |  | 2 (31-60%) | 2 (31-60%) | 2 (31-60%) | 3 (61-100%) | 2 (31-60%) | 1 (10-30%) | 3 (61-100%) | 2 (31-60%) | 1 (10-30%) | 1 (10-30%) | 2 (31-60%) | 2 (31-60%) | 1 (10-30%) | 2 (31-60%) | 2 (31-60%) | 2 (31-60%) | 2 (31-60%) |  |  |
| CCCCCCC(O)(c1cncnc1)C(C)(C)C (centres unmarked) [Compound 30] | 1 (10-30%) | 3 (61-100%) | 2 (31-60%) | 2 (31-60%) | 3 (61-100%) | 3 (61-100%) | 2 (31-60%) | 3 (61-100%) | 2 (31-60%) | 3 (61-100%) |  | 2 (31-60%) | 2 (31-60%) | 2 (31-60%) | 2 (31-60%) | 2 (31-60%) | 2 (31-60%) | 3 (61-100%) |  |  |
| CCCCCCC#CC(O)(c1cncnc1)C(C)(C)C (centres unmarked) [Compound 33] |  |  |  | 1 (10-30%) | 1 (10-30%) |  |  |  |  |  |  |  |  | 1 (10-30%) | 1 (10-30%) | 2 (31-60%) | 2 (31-60%) |  |  |  |
| CCCCC(O)(c1cncnc1)C(C)(C)C (centres unmarked) [Compound 35] |  |  |  |  |  |  |  |  |  |  |  |  |  |  | 2 (31-60%) | 2 (31-60%) | 3 (61-100%) |  |  | 2* |
| CC(C)(C)C(O)(C#CCCCl)c1cncnc1 (centres unmarked) [Compound 36] | 3 (61-100%) | 3 (61-100%) | 3 (61-100%) | 2 (31-60%) | 3 (61-100%) | 2 (31-60%) |  |  |  |  |  |  |  | 2 (31-60%) | 2 (31-60%) | 2 (31-60%) | 3 (61-100%) | 1 (10-30%) |  |  |
| CC(C)(C)C(O)(C#CCCCCCl)c1cncnc1 (centres unmarked) [Compound 37] | 3 (61-100%) | 3 (61-100%) | 3 (61-100%) | 2 (31-60%) | 3 (61-100%) | 2 (31-60%) |  |  |  |  |  |  |  |  |  |  | 3 (61-100%) | 1 (10-30%) |  |  |
| CCC(Cl)CC#CC(O)(c1cncnc1)C(C)(C)C (centres unmarked) [Compound 38] | 3 (61-100%) | 3 (61-100%) | 3 (61-100%) | 2 (31-60%) | 3 (61-100%) | 2 (31-60%) |  |  |  |  |  |  |  | 2 (31-60%) | 3 (61-100%) | 3 (61-100%) | 3 (61-100%) | 1 (10-30%) |  |  |
| CC(C)(C)/C=C/C(O)(c1cncnc1)C(C)(C)C (centres unmarked) [Compound 39] |  | 3 (61-100%) | 3 (61-100%) | 1 (10-30%) | 3 (61-100%) | 3 (61-100%) |  |  |  |  |  |  |  | 2 (31-60%) | 3 (61-100%) | 3 (61-100%) | 3 (61-100%) | 2 (31-60%) |  |  |
| CC(C)(C)/C=C/C(O)(c1cncnc1)C(C)(C)CF (centres unmarked) [Compound 49, 3-fluoro-2,2-dimethyl-1-(3,3-dimethylbut-1-ene)-1-(pyrimidin-5-yl)-propan-1-ol] |  |  |  | 1 (10-30%) | 2 (31-60%) | 2 (31-60%) |  |  |  |  |  |  |  | 1 (10-30%) | 1 (10-30%) | 2 (31-60%) | 3 (61-100%) | 1 (10-30%) |  |  |
| CC(C)CC#CC(O)(c1cncnc1)C1CC1 (centres unmarked) [Compound 56] | 3 (61-100%) | 3 (61-100%) | 3 (61-100%) | 2 (31-60%) | 3 (61-100%) | 2 (31-60%) |  |  |  |  |  |  |  | 1 (10-30%) | 1 (10-30%) | 1 (10-30%) | 3 (61-100%) | 1 (10-30%) |  |  |
